≈ marks a conversion by molar mass, not a printed value. Each block holds one compound with its values, some of them ahead of it.
Key:
[1] = tested on: U-87 MG; experiment: Cytotoxicity against human U-87 MG cells assessed as reduction in cell growth incubated for 48 hrs by MTT assay; assay type: functional, cell-based, U-87MG ATCC
[2] = Growth inhibition of human U373 MG cells measured after 72 hrs by MTT assay; assay type: functional, U-373MG ATCC
[3] = tested on: T98G; experiment: Growth inhibition of human T98G cells measured after 72 hrs by MTT assay; assay type: functional
[4] = tested on: Hs68; experiment: Growth inhibition of human Hs68 cells measured after 72 hrs by MTT assay; assay type: functional
[5] = tested on: U-87 MG; experiment: Growth inhibition of human U-87 MG cells measured after 72 hrs by MTT assay; assay type: functional, U-87MG ATCC
[6] = tested on: U-118-MG; experiment: Antiproliferative activity against human U-118-MG cells assessed as reduction in cell viability incubated for 72 hrs by MTT assay; assay type: functional, cell-based
[7] = tested on: C6; experiment: Antiproliferative activity against rat C6 cells assessed as reduction in cell viability by MTT assay; assay type: functional, cell-based
[8] = tested on: LN-229; experiment: Antiproliferative activity against human LN-229 cells assessed as reduction in cell viability by MTT assay; assay type: functional, cell-based
[9] = tested on: U-87 MG; experiment: Antiproliferative activity against human U-87 MG cells assessed as reduction in cell viability incubated for 72 hrs by MTT assay; assay type: functional, cell-based, U-87MG ATCC
[10] = tested on: C6; experiment: Antiproliferative activity against rat C6 cells assessed as reduction in cell growth at 10 uM incubated for 24 hrs by MTT assay relative to control; assay type: functional; design: scale not given: the % may be the effect or the level left
[11] = tested on: T98G; experiment: Antiproliferative activity against human T98G cells assessed as reduction in cell viability by MTT assay; assay type: functional, cell-based
[12] = tested on: LN-18; experiment: Antiproliferative activity against human LN-18 cells assessed as inhibition of cell growth incubated for 72 hrs MTS assay; assay type: functional, cell-based; conditions: LN-18, 72 h
[13] = tested on: U-251; experiment: Antiproliferative activity against human U-251MG cells assessed as reduction in cell viability incubated for 72 hrs by MTT assay; assay type: functional, cell-based; conditions: U-251, 72 h
[14] = Antiproliferative activity against human SHG-44 cells assessed as reduction in cell viability by MTT assay; assay type: functional, cell-based
[15] = tested on: T98G; experiment: Antiproliferative activity against human T98G cells assessed as reduction in cell viability measured for 24 hrs by MTT assay; assay type: functional, cell-based
[16] = tested on: U-87 MG; experiment: Cytotoxicity against human U-87 MG cells assessed as reduction in cell viability incubated for 72 hrs by neutral red uptake assay; assay type: functional, cell-based, U-87MG ATCC
[17] = tested on: U-87 MG; experiment: Cytotoxicity against human U-87 MG cells assessed as reduction in cell viability in presence of Jerantinine B incubated for 72 hrs by neutral red uptake assay; assay type: functional, cell-based, U-87MG ATCC
[18] = tested on: U-87 MG; experiment: Antiproliferative activity against human U-87-MG cells; assay type: functional, cell-based, U-87MG ATCC
[19] = tested on: U-251; experiment: Antiproliferative activity against human U-251MG cells assessed as reduction in cell growth incubated for 48 hrs by MTT assay; assay type: functional, cell-based; conditions: U-251, 48 h
[20] = tested on: U-251; experiment: Antiproliferative activity against human U-251MG cells assessed as reduction in cell growth incubated for 72 hrs by MTT assay; assay type: functional, cell-based; conditions: U-251, 72 h
[21] = tested on: C6; experiment: Antiproliferative activity against rat C6 cells assessed as reduction in cell growth incubated for 48 hrs by MTT assay; assay type: functional, cell-based; conditions: C6, 48 h
[22] = tested on: C6; experiment: Antiproliferative activity against rat C6 cells assessed as reduction in cell growth incubated for 72 hrs by MTT assay; assay type: functional, cell-based; conditions: C6, 72 h
[23] = tested on: C6; experiment: Antiproliferative activity against rat C6 cells assessed as reduction in cell growth incubated for 24 hrs by MTT assay; assay type: functional
[24] = tested on: U-251; experiment: Antiproliferative activity against human U-251MG cells assessed as reduction in cell growth incubated for 24 hrs by MTT assay; assay type: functional, cell-based; conditions: U-251, 24 h
[25] = Cytotoxicity against human U87MG.deltaEGFR cells by resazurin dye based assay; assay type: functional, cell-based
[26] = tested on: SF-268; experiment: Cytotoxicity against human SF-268 cells assessed as reduction in cell viability incubated for 72 hrs by MTT assay; assay type: functional, cell-based; conditions: SF-268, 72 h
[27] = tested on: U-251; experiment: Cytotoxicity against human U-251MG cells assessed as reduction in cell growth; assay type: functional, cell-based
[28] = tested on: U-87 MG; experiment: Cytotoxicity against human U-87 MG cells by resazurin dye based assay; assay type: functional, cell-based, U-87MG ATCC
[29] = tested on: U-87 MG; experiment: Antiproliferative activity against human U-87 MG cells assessed as reduction in cell growth measured for 24 hrs by MTT assay; assay type: functional, cell-based, U-87MG ATCC
[30] = tested on: U-118-MG; experiment: Antiproliferative activity against human U-118-MG cells assessed as inhibition of cell proliferation incubated for 72 hrs by CCK8 assay; assay type: functional, cell-based
[31] = tested on: U-87 MG; experiment: Antiproliferative activity against human U-87 MG cells assessed as reduction in cell viability incubated for 72 hrs by Presto-Blue cell viability assay; assay type: functional, cell-based, U-87MG ATCC
[32] = tested on: U-87 MG; experiment: Antitumor activity against human U-87 MG cells xenografted in mouse model assessed as reduction in tumor growth at 15 mg/kg, ip administered once daily for 5 days relative to control; assay type: functional, U-87MG ATCC; design: scale not given: the % may be the effect or the level left; conditions: time 5 day
[33] = tested on: H4; experiment: Antiproliferative activity against human H4 cells assessed as reduction in cell viability incubated for 72 hrs by Presto-Blue cell viability assay; assay type: functional, cell-based; conditions: H4, 72 h
[34] = tested on: U-251; experiment: Induction of apoptosis in human U-251MG cells assessed as increase in PARP cleavage at 12.5 to 100 uM incubated for 24 hrs by Western blot analysis; assay type: functional; conditions: dose 12.5-100 µM
[35] = tested on: T98G; experiment: Antiproliferative activity against human T98G cells assessed as reduction in cell viability incubated for 96 hrs by MTT assay; assay type: functional, cell-based
[36] = tested on: T98G; experiment: Induction of apoptosis in human T98G cells at 10 ug/ml relative to control; assay type: functional; conditions: dose 10 µg/ml
[37] = tested on: C6; experiment: Cytotoxicity against rat C6 cells assessed as reduction in cell growth measured for 48 hrs by MTT assay; assay type: functional, cell-based; conditions: C6, 48 h
[38] = tested on: U-87 MG; experiment: Antiproliferative activity against human U-87 MG cells assessed as reduction in cell viability incubated for 48 hrs by CCK-8 assay; assay type: functional, cell-based, U-87MG ATCC
[39] = tested on: U-87 MG; experiment: Antiproliferative activity against human U-87 MG cells assessed as reduction in cell viability at 50 uM incubated for 48 hrs by CCK-8 assay relative to control; assay type: functional, U-87MG ATCC
[40] = tested on: C6; experiment: Antiproliferative activity against rat C6 cells assessed as reduction in cell viability incubated foe 24 hrs by MTT assay; assay type: functional, cell-based; conditions: C6, 24 h
[41] = tested on: LN-18; experiment: Antiproliferative activity against human LN-18 cells assessed as reduction in cell viability incubated for 48 hrs by CCK-8 assay; assay type: functional, cell-based; conditions: LN-18, 48 h
[42] = tested on: U-251; experiment: Antiproliferative activity against human U-251MG cells assessed as reduction in cell viability at 50 uM incubated for 48 hrs by CCK-8 assay relative to control; assay type: functional
[43] = tested on: U-87 MG; experiment: Antiproliferative activity against human U-87 MG cells assessed as reduction in cell viability incubated foe 24 hrs by MTT assay; assay type: functional, cell-based, U-87MG ATCC
[44] = tested on: HaCaT; experiment: Growth inhibition of human HaCaT cells measured after 48 hrs by sulforhodamine B assay; assay type: functional
[45] = tested on: U-251; experiment: Growth inhibition of human U-251 cells measured after 48 hrs by sulforhodamine B assay; assay type: functional
[46] = tested on: RPMI 8402; experiment: Cytotoxicity against human RPMI 8402 cells assessed as reduction in cell viability incubated for 4 days by MTT assay; assay type: functional, cell-based; conditions: RPMI 8402, 96 h
[47] = tested on: SF-268; experiment: Cytotoxicity against human SF-268 cells assessed as reduction in cell viability incubated for 4 days by MTT assay; assay type: functional; conditions: SF-268, 96 h, time 4 day
[48] = tested on: SF-268; experiment: Cytotoxicity against human SF-268 cells; assay type: functional; conditions: read-out: ED50 (the source's name)
[49] = tested on: T98G; experiment: Inhibition of colony formation in human T98G cells assessed as reduction in number of cell clone measured after 14 days by crystal violet staining based microscopic analysis; assay type: functional; conditions: 336 h
[50] = Cytotoxicity against HEK293T cells assessed as reduction in cell viability incubated for 72 hrs by MTS assay; assay type: toxicity, cell-based, HEK-293T; conditions: human
[51] = tested on: T98G; experiment: Antiproliferative activity against human T98G cells assessed as reduction in cell viability incubated for 72 hrs by WST-8 reagent based assay; assay type: functional
[52] = Inhibition of colony formation in human U-251MG cells assessed as reduction in number of cell clone measured after 14 days by crystal violet staining based microscopic analysis; assay type: functional; conditions: 336 h
[53] = tested on: T98G; experiment: Anticancer activity against human T98G cells assessed as reduction in cell viability; assay type: functional, cell-based
[54] = tested on: U-87 MG; experiment: Antiproliferative activity against human U-87 MG cells assessed as reduction in cell viability incubated for 72 hrs by WST-8 reagent based assay; assay type: functional, U-87MG ATCC

SMILES: Oc1cc2cccc(O)c2cn1
IC50 [1]: 3.46 µM

GI50 [5]: 9 µM
SMILES: O[C@@H]1CN2Cc3cc4c(cc3C13C=C[C@H](O)C[C@@H]23)OCO4 (some centres not stated)
GI50 [2]: 38 µM | GI50 [3]: 9 µM | GI50 [4]: 11 µM

IC50 [9]: 21.8 µM | IC50 [13]: 9.79 µM
SMILES: COc1ccc2cc3[n+](cc2c1OC)CCc1cc2c(cc1-3)OCO2 [BERBERINE]
IC50 [6]: 35.5 µM | IC50 [7]: 50.9 µM | IC50 [8]: 0.0813 µg/mL | Activity [10]: 88% | IC50 [11]: 120 µM | IC50 [12]: 89.7 µM | IC50 [14]: 0.2748 µg/mL | IC50 [15]: 134 µg/mL

SMILES: CC(C)=CCC/C(C)=C/CC/C(C)=C/CC[C@]1(C)CCc2cc(O)cc(C)c2O1 [DELTA-TOCOTRIENOL]
IC50 [16]: 3.12 µg/mL (≈ 7.87 µM) | IC50 [17]: 1.83 µg/mL

SMILES: COc1cc2c(cc1OC)-c1c3c(cc4c1[C@H](C2)N(C)CC4)OCO3 [DICENTRINE]
IC50 [18]: 4.73 µM

EC50 [19]: 94.2 µM | EC50 [20]: 91.2 µM | EC50 [24]: 112 µM
SMILES: COc1ccc2c(c1OC)CN(C)c1c-2ccc2cc3c(cc12)OCO3 [DIHYDROCHELERYTHRINE]
EC50 [21]: 99.8 µM | EC50 [22]: 93.3 µM | EC50 [23]: 121.4 µM

SMILES: COc1cccc2c1C(=O)c1c(O)c3c(c(O)c1C2=O)C[C@@](O)(C(=O)CO)C[C@@H]3O[C@H]1C[C@H](N)[C@H](O)[C@H](C)O1 [DOXORUBICIN]
IC50 [25]: 6.11 µM | IC50 [26]: 0.7 µM | IC50 [27]: 0.237 µM | IC50 [28]: 1.06 µM

SMILES: COc1ccc2cc1Oc1ccc(cc1)C[C@H]1c3cc(c(OC)cc3CCN1C)Oc1c(O)c(OC)cc3c1[C@H](C2)N(C)CC3 [FANGCHINOLINE]
IC50 [29]: 39.3 µM | IC50 [30]: 44.2 µM

SMILES: COc1ccc2c(c1)[nH]c1c(C)nccc12 [HARMINE]
IC50 [31]: 45.3 µM | Activity [32]: 16.5% | IC50 [33]: 4.9 µM | Activity [34]: 346%

SMILES: COc1ccc2c(c1O)-c1c(O)c(OC)cc3c1[C@H](C2)[N+](C)(C)CC3 [MAGNOFLORINE]
IC50 [35]: 112 µg/mL | Activity [36]: 24.02%

SMILES: COc1ccc(C[C@@H]2c3cc(Oc4cc(C[C@@H]5c6cc(OC)c(OC)cc6CCN5C)ccc4O)c(OC)cc3CCN2C)cc1 [NEFERINE]
IC50 [37]: 12 µM

IC50 [38]: 5 µM | IC50 [43]: 10 µM
SMILES: COc1cc2c[n+](C)c3c4cc5c(cc4ccc3c2cc1OC)OCO5.[Cl-] [NITIDINE CHLORIDE]
Activity [39]: ~50% | IC50 [40]: 8 µM | IC50 [41]: 5 µM | Activity [42]: ~50%

GI50 [45]: 16.2 µM
SMILES: COc1cc2c(cc1OC)-c1cc3ccc(OC)c(OC)c3c[n+]1CC2 [PALMITINE]
GI50 [44]: 122 µM | IC50 [46]: 10 µg/mL | GI50 [47]: 3 µg/mL

SMILES: O=C1N[C@H]2[C@H](O)[C@H](O)[C@@H](O)[C@H](O)[C@@H]2c2cc3c(c(O)c21)OCO3 [PANCRATISTATIN]
EC50 [48]: 0.017 µg/mL (≈ 0.0523 µM)

EC50 [49]: 430 µM | IC50 [9]: 135 µM | EC50 [52]: 23 µM | IC50 [13]: > 320 µM | EC50 [54]: 42 µM
SMILES: Cn1nnc2c(C(N)=O)ncn2c1=O [TEMOZOLOMIDE]
IC50 [6]: > 320 µM | IC50 at 72 h [50]: > 50 µg/mL | EC50 [51]: 390 µM | EC50 [53]: 150 µM
